# Results as given in US20060041962A1, “Genes and uses thereof to modulate secondary metabolite biosynthesis” (priority 2002, published 2006).
# Assays:
# tobacco BY-2 cells [1] = experiment: Nicotine alkaloid accumulation in methyl jasmonate elicited BY-2 cells (GC-MS); format: cell-based, Nicotiana tabacum
# Method: (§1) Nicotiana tabacum BY-2 cells were cultured in modified Linsmaier-Skoog (LS) medium (Linsmaier & Skoog, 1965), as described by Nagata & Kumagai (1999). First, the growth curve of BY-2 cell culture was determined (FIG. 2) and the late exponential phase was used in elicitation experiments. Since the ability of high auxin concentration to inhibit the biosynthesis of nicotine is well known (Hibi et al., 1994; Ishikawa, et al., 1994), the six-day-old culture was prior elicitation washed and diluted 10-fold with fresh hormone free medium. After 12 hours, the cells were treated with methyl jasmonate (MeJA). MeJA (cis-form, Duchefa M0918) dissolved in dimethyl sulfoxide (DMSO) and was added to the culture medium at a final concentration of 50 μM. Same amount of DMSO alone served as a control. Samples for cDNA-AFLP analysis were taken at 0, 1, 2, 3, 4, 5, 6, 7, 8, 9, 10, 11, 12, 13, 14, 15, 16, 18, 20, 24, 36, 48, and 98 hours after jasmonate addition or at 0, 2, 4, 6, 8, 10, 12, 14, 16, 24, 36, 48, and 98 hours after DMSO addition, respectively. For alkaloid analysis, the samples were taken at 0, 12, 14, 24, 48 and 98 hours. Three replicate shake flasks pooled together yielded the total culture volume of 75 ml. After filtering (Miracloth) under vacuum the cells were lyophilized. Lyophilized cell samples were extracted for GC-MS analysis by a modified method described by Furuya et al. (1971). Cells were weighed and 25 μg of internal standard (5α-cholestan) was added. The samples were made alkaline with ammonia (10% (v/v), 1 ml) and water (2 ml) was added. Alkaloids were extracted by vortexing with 2 ml of dicloromethane. After 30 min the samples were centrifuged (2000 rpm, 10 min) and the lower organic layer was separated and transferred into glass vials. The samples were concentrated to 50 μl and 3 μl aliquots were injected to GC-MS. In some cases (for derivatization of free fatty acids and more polar compounds) the samples were silylated prior to GC-MS analysis. After evaporation to dryness, 25 μl of dichloromethane was added and silylation was performed by N-methyl-N-(trimethylsilyl)-trifluoro-acetamide (Pierce, Rockford, USA) at 120° C. for 20 min.
# tobacco BY-2 cells [2] = experiment: cDNA-AFLP transcript profiling of jasmonate-elicited BY-2 cells; format: cell-based, Nicotiana tabacum; settings: 50 μM methyl jasmonate vs DMSO-treated cells, approximately 20,000 tags analyzed
# Method: Total RNA was prepared by LiCl precipitation (Sambrook, 1989). Starting from 5 μg total RNA, first-strand cDNA was synthesized by reverse transcription with a biotinylated oligo-dT25 primer (Genset, Paris, France) and Superscript II (Life Technologies, Gaithersburg, Md.). Second-strand synthesis was performed by strand displacement with Escherichia coli ligase (Life Technologies), DNA polymerase I (USB, Cleveland, Ohio) and RNAse-H (USB).
# 500 nanograms of double-stranded cDNA was used for AFLP analysis as described (Vos et al., 1995; Bachem et al., 1996) with modifications. The restriction enzymes used were BstYI and MseI (Biolabs) and the digestion was performed in two separate steps. […]
# Scanned gel images were quantitatively analyzed using the AFLP QuantarPro image analysis software (Keygene N. V., Wageningen, N L). This software was designed for accurate lane definition, fragment detection, and quantification of band intensities. All visible AFLP fragments were scored and individual band intensities in each lane were measured. […] The correction factors were calculated based on constant bands throughout the time course. […] A coefficient of variation (CV) was calculated by dividing […]. […]
# NsPMT2 promoter = NsPMT2 promoter EGFP-GUS reporter in transgenic BY-2 cell line 7 (GUS activity); format: cell-based, Nicotiana sylvestris
# Description: The PMT gene encodes the enzyme putrescine N-methyltransferase, catalysing the first committed step in the production of nicotinic alkaloids. Transcripts of Nicotiana sp. PMT genes are reported to be up regulated by methyl jasmonate. […] We have applied this knowledge and constructed a new reporter construct, called pHGWFS7-ppmt2, harbouring a EGFP-GUS fusion reporter gene (in Gateway® vector pHGWFS7; Karimi et al., Trends Plant Sci. 2002, 7(5):193-195), driven by the NsPMT2 promoter. To this end, primers were designed for the Adapter attB PCR protocol (InVitroGen) to amplify the NsPMT2 5′flanking region covering nucleotides −1713 to +3 (Table 3).
# The pHGWFS7-ppmt2 construct was subsequently introduced in the ternary Agrobacterium tumefaciens transformation system, LBA4404.pBBR1-MCS-5.virGN54D (van der Fits et al., Plant Mol. Biol. 2000, 43(4):495-502), allowing efficient transformation of tobacco BY-2 cell cultures. Different independent transgenic lines were established and the jasmonate inducibility of the promoter in these transgenic BY-2 cells was confirmed (Table 4).
# To illustrate the potential of this approach, BY-2-pmt2 cell line 7 was double transformed with the pK7WGD2-C330 construct, harbouring the MJM tag with SEQ ID No 148, an AP2-domain transcription factor encoding gene (also designated as C330 in this application), driven by the constitutive p35S promoter.
# [3] = tested on: BY-2 reporter cell line (line 7); experiment: Nicotine alkaloid content of BY-2 reporter cell line super-transformed with C330; format: cell-based, Nicotiana tabacum; settings: line 7 + C330 vector, −2,4D + MeJA
# Method: In a next step, we evaluated if there was a correlation between the GUS-activity in the BY-2 reporter cell line and nicotine alkaloid accumulation. […] Measurements in tables 6A and 6B were carried out in the presence or absence of synthetic auxins. “−2,4 D” means in the absence of dichlorophenoxy-acetic acid. “NAA” means in the presence of alfa-naphtalene-acetic acid. “DW” means dry weight, “MeJA” is with the addition of the elicitor methyl jasmonate, “DMSO” means with the addition of dimethylsulfoxide instead of MeJA.
# as §1
compound,measurement,setting,value
"CC/C=C\CC1C(=O)CCC1CC(=O)OC (centres unmarked) [MeJA, methyl jasmonate]","nicotine, anabasine, anatalline and anatabine content",tobacco BY-2 cells [1]; BY-2 cells elicited vs control samples,marked increase
same,highest concentration of anatabine,"tobacco BY-2 cells [1]; BY-2 cells, 50 μM MeJA",800 µg/g (d.w.)
same,maximum concentration of nicotine relative to anatabine (dry weight basis),"tobacco BY-2 cells [1]; BY-2 cells, 50 μM MeJA",4%
same,start of anatabine accumulation after elicitation,"tobacco BY-2 cells [1]; BY-2 cells, 50 μM MeJA",24 h
same,start of nicotine accumulation after elicitation,"tobacco BY-2 cells [1]; BY-2 cells, 50 μM MeJA",14 h
same,time after which anabasine and two anatalline isomers increased,"tobacco BY-2 cells [1]; BY-2 cells, 50 μM MeJA",48 h
same,differential transcript tags,tobacco BY-2 cells [2],591
same,GUS activity,"NsPMT2 promoter; BY-2 cell line 7, +MeJA, 0 h (Table 4)",0.8 ± 1.0 units/mg protein/minute
same,GUS activity,"NsPMT2 promoter; BY-2 cell line 7, +MeJA, 4 h (Table 4)",2.0 ± 0.3 units/mg protein/minute
same,GUS activity,"NsPMT2 promoter; BY-2 cell line 7, +MeJA, 8 h (Table 4)",6.4 ± 0.3 units/mg protein/minute
same,GUS activity,"NsPMT2 promoter; BY-2 cell line 7, +MeJA, 14 h (Table 4)",29.1 ± 1.9 units/mg protein/minute
same,GUS activity,"NsPMT2 promoter; BY-2 cell line 7, +MeJA, 24 h (Table 4)",92.2 ± 6.4 units/mg protein/minute
same,GUS activity,"NsPMT2 promoter; BY-2 line 7, +MeJA, 0 h (Table 5)",0.0 ± 0.0 units/mg protein/minute
same,GUS activity,"NsPMT2 promoter; BY-2 line 7, +MeJA, 24 h (Table 5)",399.0 ± 56.4 units/mg protein/minute
same,GUS activity,"NsPMT2 promoter; BY-2 line 7, +MeJA, 48 h (Table 5)",663.0 ± 33.6 units/mg protein/minute
same,GUS activity,"NsPMT2 promoter; BY-2 line 7-C330, +MeJA, 0 h",1.0 ± 0.1 units/mg protein/minute
same,GUS activity,"NsPMT2 promoter; BY-2 line 7-C330, +MeJA, 24 h",276.7 ± 55.9 units/mg protein/minute
same,GUS activity,"NsPMT2 promoter; BY-2 line 7-C330, +MeJA, 48 h",347.8 ± 2.0 units/mg protein/minute
same,Anatabine,[3]; 0 h,0.038 mg/g DW
same,Nicotine,[3]; 0 h,0.008 mg/g DW
same,Anabasine,[3]; 24 h,0.099 Mg/g DW
same,Anatabine,[3]; 24 h,2.065 mg/g DW
same,Nicotine,[3]; 24 h,0.271 mg/g DW
same,Anabasine,[3]; 48 h,0.297 Mg/g DW
same,Anatabine,[3]; 48 h,3.541 mg/g DW
same,Nicotine,[3]; 48 h,0.283 mg/g DW
